{"source": "patent US20170298056A1", "about": "“SMALL MOLECULE INHIBITORS OF HIV-1 ENTRY AND METHODS OF USE THEREOF” (Dana-Farber Cancer Institute, Inc., priority 2014, published 2017)", "key": {"[1]": {"tested_on": "Cf2Th-CD4/CXCR4 cells", "assay": "Viability assay (CellTiterGlo), CD4/CXCR4-expressing target cells", "type": "cell-based", "method": "Viability Assay. As part of the secondary screen, cells were incubated for ˜20 hours in 384-well plates in a final volume of 45 μl growth medium at 37° C. The plate was equilibrated to room temperature, 15 μl of CellTiterGlo (Promega) was added to each well and luminescence was measured as described above. The viability assay with 18A was done in parallel to the viral infection assay for the same length of time. 18A was diluted using an HP D300 Digital Dispenser in a 96-well B&W isoplate and cells were added. After incubation of 26-30 hours (Cf2Th cells) or 40-44 hours (PBMC). 30 μl (Cf2Th cells) or 100 μl (PBMC) of CellTiterGlo was added and luminescence was measured as described above."}, "[2]": {"tested_on": "A-MLV", "assay": "Infection of human PBMC by control A-MLV", "type": "cell-based, amphotropic murine leukemia virus", "settings": "range of tested concentrations", "method": "Peripheral blood mononuclear cells (PBMC). Human blood was purchased from Research Blood Components, who obtained a consent firm from each donor, according to the American Association of Blood Banks guidelines, PBMC were isolated from the whole blood using a Ficoll-Paque gradient (Ficoll-Paque PLUS, Amersham Biosciences) and activated at concentration of 10^6 live cells/ml for 3 days in RPMI-PBMC medium (RPMI-1640 supplemented with 20% FBS, 10% IL-2 (Hemagen, Columbia, Md.), 100 μg/ml primocin (InvivoGen, San Diego, Calif.)) with 4 μg/ml phytohemagglutinin (Sigma-Aldrich, St. Louis, Mo.). In some cases, cells were frozen, thawed and activated prior to the assay.\nViral infection assay. Each test compound was serially diluted in DMSO in a 96-well B&W isoplate (PerkinElmer, Boston, Mass.) using an HP D300 Digital Dispenser, to a final volume of 450 nl. DMSO was used as a control. […] The activity of the firefly luciferase, which was used as a reporter protein in the system, was measured with a Centro LB 960 luminometer (Berthold Technologies, Oak Ridge, Tenn.). One hundred microliters of assay buffer (15 mM MgSO4, 15 mM KH2PO4/K2HPO4 pH 7.8, 1 mM ATP and 1 mM DTT) was injected to each well, followed by a 50 μl injection of 1 mM Dluciferin potassium salt (BD Pharmingen, San Jose, Calif.); luminescence was measured for 2 sec. […]"}, "[3]": {"tested_on": "HIV-1HXBc2", "assay": "Cold inactivation of recombinant virus", "type": "cell-based", "settings": "in the presence of 18A vs DMSO or unrelated compounds", "method": "For washout experiments, different concentrations of 18A were incubated with the recombinant viruses at 37° C. for 20 minutes. The viruses were laid on a 20% sucrose cushion and ultracentrifuged at 30,000 RPM in an SW55 rotor for 1.5 hours at 4° C. After the supernatant was aspirated, viruses were suspended in 500-1000 μl medium and 90 μl of the virus suspension was used to infect 5000 Cf2Th-CD4/CCR5 cells (5 replicates). The cells were incubated for 48 hours and processed as described above. Sensitivity of recombinant viruses to cold inactivation was measured."}, "[4]": {"tested_on": "HXBc2-YU2 Chimeras (CCR5-tropic)", "assay": "Viral infection assay, HXBc2-YU2 chimeras (CCR5-tropic)", "type": "cell-based, HIV-1", "method": "Production of recombinant HIV-1 expressing luciferase. […] After 48 hours, the supernatant was collected, buffered with 50 mM Hepes pH 7.4 (final concentration) and centrifuged for 5 minutes at 750×g and 4° C. The virus-containing supernatant was used directly or frozen at −80° C.\nViral infection assay. Each test compound was serially diluted in DMSO in a 96-well B&W isoplate (PerkinElmer, Boston, Mass.) using an HP D300 Digital Dispenser, to a final volume of 450 nl. DMSO was used as a control. Viruses pseudotyped with a specific Env were added to each well and incubated briefly at room temperature. Cf2Th-CD4/CCR5 cells were detached with StemPro Accutase Cell Dissociation Reagent (Invitrogen, cat #A11105-01), washed once, and 5000 cells were added to each well. […] Following incubation, the medium was aspirated and cells were lysed with 30 μl of Passive Lysis Buffer (Promega, cat #E1941). The activity of the firefly luciferase, which was used as a reporter protein in the system, was measured with a Centro LB 960 luminometer (Berthold Technologies, Oak Ridge, Tenn.). One hundred microliters of assay buffer (15 mM MgSO4, 15 mM KH2PO4/K2HPO4 pH 7.8, 1 mM ATP and 1 mM DTT) was injected to each well, followed by a 50 μl injection of 1 mM Dluciferin potassium salt (BD Pharmingen, San Jose, Calif.); luminescence was measured for 2 sec. […]"}}, "data": [{"smiles": "O=C(N/N=C/c1ccc(O)cc1)Nc1cccc2nsnc12", "note": "[Compound 18A]", "values": [{"measurement": "CC50", "setting": "[1]", "value": 63, "unit": "µM"}, {"measurement": "effect on A-MLV infection", "setting": "[2]", "value": "No significant effect"}, {"measurement": "sensitivity of virus to cold inactivation", "setting": "[3]", "value": "decreased sensitivity to cold inactivation"}, {"measurement": "IC50", "setting": "[4]; HXBc2 (YU2 V3) chimera", "value": "20.2 ± 2.2", "unit": "µM"}, {"measurement": "IC50", "setting": "[4]; HXBc2 (YU2 V123) chimera", "value": "12.5 ± 1.6", "unit": "µM"}]}]}
